A value given as a limit tells only on which side of the number the result lay.

Format in all cases: binding
The target of assay [1] is T1, FH18-20 (Homo sapiens, UniProt P08603).
T1 construct: gene CFH; C-terminal fragment CCP18-20, monomeric, recombinant from Pichia pastoris
T1 sequence (P08603 1046-1231 limits assumed): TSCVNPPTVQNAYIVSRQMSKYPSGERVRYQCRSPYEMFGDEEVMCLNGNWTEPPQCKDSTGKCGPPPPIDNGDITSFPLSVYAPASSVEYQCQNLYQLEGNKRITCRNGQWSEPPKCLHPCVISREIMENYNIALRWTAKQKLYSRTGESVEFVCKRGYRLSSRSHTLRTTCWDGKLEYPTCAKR
The assay can be described thus: SPR, immobilised glycan, concentration series. As to conditions: labelled compound (biotin-coupled on streptavidin chip); PBS, 0.005% Tween20, 25 °C; rough estimate, saturation not reached; read-out: affinity.

The target in another assay is T2, FH19-20 (Homo sapiens, UniProt P08603).
T2 construct: gene CFH; C-terminal fragment CCP19-20, recombinant from Pichia pastoris
T2 sequence (P08603 1107-1231 limits assumed): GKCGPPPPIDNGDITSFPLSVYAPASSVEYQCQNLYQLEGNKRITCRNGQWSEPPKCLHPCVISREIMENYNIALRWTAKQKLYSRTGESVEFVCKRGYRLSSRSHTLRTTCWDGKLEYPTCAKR
As to the kind of experiment: SPR, immobilised glycan, concentration series. Particulars: labelled compound (biotin-coupled on streptavidin chip); PBS, 0.005% Tween20, 25 °C; rough estimate, saturation not reached; read-out: affinity.

The target in assay [2] is T1, FH18-20. As to the kind of experiment: intrinsic tryptophan fluorescence (nanoDSF), titration; also STD NMR. As to conditions: 50 mM HEPES pH 7.4, 150 mM NaCl, 3 mM EDTA; 20 and 37 °C; in solution. In general terms: In DSF a fluorescence change marks the thermal transition of the protein.

For the compound “biotinylated 3´-sialyl-N-acetyllactosaminide”, the Kd on FH18-20 [1] and on FH19-20 was greater than 100 µM each time.
For `CC(=O)N[C@H]1[C@H]([C@H](O)[C@H](O)CO)O[C@@](O[C@H]2[C@@H](O)[C@@H](CO)O[C@@H](O[C@H]3[C@H](O)[C@@H](O)C(O)O[C@@H]3CO)[C@@H]2O)(C(=O)O)C[C@@H]1O` (stereo partly drawn) [3’-sialyllactose], at FH18-20 [2], the affinity result is given as “monovalent interactions in solution were generally weaker; with estimated affinities in the millimolar range”.

Values taken from publication PMC7959842, “Deregulation of Factor H by Factor H-Related Protein 1 Depends on Sialylation of Host Surfaces” (Frontiers in Immunology, 2021).
